Reference: BindingDB's records for doi:10.1016/j.bmcl.2015.11.098 (Janssen Pharmaceutica, 2016)

Molecular target: Metabotropic glutamate receptor 5 (Homo sapiens, UniProt P41594)
Assay: Positive allosteric modulation of human mGlu5 expressed in HEK293 cells assessed as glutamate-induced calcium mobilization

Metabotropic glutamate receptor 5, sequence (P41594 whole entry): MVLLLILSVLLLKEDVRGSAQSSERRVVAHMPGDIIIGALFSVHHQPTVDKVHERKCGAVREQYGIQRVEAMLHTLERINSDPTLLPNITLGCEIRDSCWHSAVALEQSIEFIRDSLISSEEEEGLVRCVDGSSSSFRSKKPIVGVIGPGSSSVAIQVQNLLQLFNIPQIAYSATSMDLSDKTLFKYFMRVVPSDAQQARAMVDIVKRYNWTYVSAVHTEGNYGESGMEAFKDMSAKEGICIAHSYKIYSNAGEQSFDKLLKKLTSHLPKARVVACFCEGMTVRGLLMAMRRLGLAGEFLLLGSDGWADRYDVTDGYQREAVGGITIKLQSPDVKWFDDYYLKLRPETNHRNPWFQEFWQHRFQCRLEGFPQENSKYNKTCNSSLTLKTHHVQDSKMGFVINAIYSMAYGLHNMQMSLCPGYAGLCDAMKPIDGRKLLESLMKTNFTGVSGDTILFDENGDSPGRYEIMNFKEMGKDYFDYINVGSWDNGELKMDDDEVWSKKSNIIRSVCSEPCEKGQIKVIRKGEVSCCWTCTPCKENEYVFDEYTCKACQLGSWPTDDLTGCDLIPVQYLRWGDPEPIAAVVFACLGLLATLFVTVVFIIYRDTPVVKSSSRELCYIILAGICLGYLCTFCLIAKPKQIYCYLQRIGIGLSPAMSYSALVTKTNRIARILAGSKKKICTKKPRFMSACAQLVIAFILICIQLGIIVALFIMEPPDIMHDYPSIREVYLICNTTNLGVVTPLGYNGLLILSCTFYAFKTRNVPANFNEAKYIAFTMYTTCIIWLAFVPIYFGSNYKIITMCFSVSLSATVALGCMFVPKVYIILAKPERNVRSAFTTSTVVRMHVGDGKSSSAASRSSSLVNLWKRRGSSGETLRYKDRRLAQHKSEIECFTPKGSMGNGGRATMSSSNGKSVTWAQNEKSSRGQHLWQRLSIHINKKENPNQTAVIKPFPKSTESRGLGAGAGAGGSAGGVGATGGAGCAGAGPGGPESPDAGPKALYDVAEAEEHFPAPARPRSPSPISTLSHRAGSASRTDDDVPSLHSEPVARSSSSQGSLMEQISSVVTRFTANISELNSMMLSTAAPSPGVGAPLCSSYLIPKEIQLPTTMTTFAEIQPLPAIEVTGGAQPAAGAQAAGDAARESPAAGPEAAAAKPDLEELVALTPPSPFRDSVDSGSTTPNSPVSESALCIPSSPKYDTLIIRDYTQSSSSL

For O=C1c2nc(COc3ccccc3)nn2CCN1c1ccc(F)cc1, the EC50 was 2.81 µM.
